Structures can show the parent of a compound that is named as a salt.
Legend:
rabbit platelets = rabbit platelets (Oryctolagus cuniculus, UniProt G1TEI7); assay: in vitro platelet agglutination inhibition test (PAF-induced); format: cell-based; conditions: rabbit platelet-rich plasma, PAF final concentration 10 ng/ml, 37°C; read-out: PAF-Induced Platelet Aggregation IC50 (converted)
Description: To determine the PAF-antagonizing property of the compounds, the PAF-induced agglutination of rabbit platelets in vitro is utilized. To obtain platelet-rich plasma (PRP), venous blood is taken from rabbit auricular vein into a plastic centrifugal tube containing 1.0% sodium citrate solution. The ratio of sodium citrate solution to blood is 1:10. The obtained citrate-containing blood is centrifuged at 70 x g (625 rpm) at room temperature for 20 minutes and the PRP in the upper layer is transferred to another plastic tube. The remaining lower layer is further centrifuged at 1500 x g (2800 rpm) for 10 minutes and the platelet poor plasma (PPP) in the upper layer is recovered. The platelet agglutination is measured by using aggregometer commercially available from Niko Bioscience, Inc. An aliquote of the PRP is poured into a cubette for measurement. Immediately thereafter, aspirin, creatinin phosphate and creatinin phosphokinase are added to final concentrations of 0.1 mM, 7 mM and 45 U/ml, respectively. Then a solution of a test compound is added and the resulting mixture is stirred at 37°C for 2 minutes. To the resultant, PAF (final concentration: 10 ng/ml) is added to induce platelet aggregation. The platelet aggregation rate is calculated from the relative maximum value in each aggregation curve taking the transmittance of PPP as the maximum aggregation (100% aggregation). Using the aggregation rate when physiological saline was added as a control, the inhibition rate which was the ratio of the aggregation rate when the test compound was added to the control was calculated and the IC50 values were determined by interpolation.

PAF receptor = target: T1, PAF receptor (Oryctolagus cuniculus, UniProt G1TEI7); assay: Binding test using [3H]-PAF (PAF receptor binding test); set-up: species or system rabbit; conditions: rabbit platelet membrane fraction, [3H]-PAF 0.4 nM, 25°C, 60 minutes; read-out: Receptor Binding Inhibition IC50 (converted)
T1 construct: Cell membrane fraction of rabbit platelets was prepared; from tissue; host or cells: rabbit platelets (cell membrane fraction)
T1 sequence (G1TEI7 1-342): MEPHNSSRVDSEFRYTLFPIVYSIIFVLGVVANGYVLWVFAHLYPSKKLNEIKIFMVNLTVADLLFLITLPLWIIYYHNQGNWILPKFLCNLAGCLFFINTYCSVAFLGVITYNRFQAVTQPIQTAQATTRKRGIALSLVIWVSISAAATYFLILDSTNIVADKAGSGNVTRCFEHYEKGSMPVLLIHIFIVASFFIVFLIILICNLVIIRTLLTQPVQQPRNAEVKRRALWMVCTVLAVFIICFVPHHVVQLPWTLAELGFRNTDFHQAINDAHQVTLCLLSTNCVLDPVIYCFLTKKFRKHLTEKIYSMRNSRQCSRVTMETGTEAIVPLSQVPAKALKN

Sequence of rabbit platelets (G1TEI7 1-342): as above

IC50 (rabbit platelets) | IC50 (PAF receptor) | Structure (SMILES)
1030 nM | 1820 nM | Cc1nnc2n1-c1ccccc1N(CCCN1CCC(C(O)(c3ccc(F)cc3)c3ccc(F)cc3)CC1)C2C (centres unmarked) [Compound 90, 4,5-dihydro-1,4-dimethyl-5-[3-[4-[hydroxybis(4-fluorophenyl)methyl]piperidin-1-yl]propyl][1,2,4]triazolo[4,3-a] quinoxaline]
3960 nM | 3300 nM | CCCc1nnc2n1-c1ccccc1N(CCCN1CCC(c3c[nH]c4ccccc34)CC1)C2 [Compound 53, 4,5-dihydro-1-propyl-5-[3-[4-(3-indolyl)piperidin-1-yl]propyl] [1,2,4]triazolo[4,3-a]quinoxaline]
937 nM | 152 nM | Cc1nnc2n1-c1ccccc1N(CCCN1CCC(=C(c3ccc(Cl)cc3)c3ccc(Cl)cc3)CC1)C2 [Compound 150, 4,5-dihydro-1-methyl-5-[3-[4-[bis(4-chlorophenyl)methylene]piperidin-1-yl]propyl] [1,2,4]triazolo[4,3,a]quinoxaline]
1530 nM | 3380 nM | Cc1nnc2n1-c1ccccc1N(CCCN1CCC(n3c(=O)[nH]c4ccccc43)CC1)C2 [Compound 81, 4,5-dihydro-1-methyl-5-[3-[4-(2-keto-1-benzimidazolynyl)piperidin-1-yl]propyl][1,2,4]triazolo[4,3-a] quinoxaline]
1400 nM | 110 nM | Cc1nnc2n1-c1ccccc1N(CCCN1CCC(=C(c3ccccc3)c3ccc(C(F)(F)F)cc3)CC1)C2 [Compound 151, 4,5-dihydro-1-methyl-5-[3-[4-[[4-(trifluoromethyl)phenyl]phenylmethylene]piperidin-1-yl]propyl] [1,2,4]triazolo[4,3,a]quinoxaline]
597 nM | 54.1 nM | COc1ccc(C(=C2CCN(CCCN3Cc4nnc(C)n4-c4ccccc43)CC2)c2ccc(OC)cc2)cc1 [Compound 148, 4,5-dihydro-1-methyl-5-[3-[4-[bis(4-methoxyphenyl)methylene]piperidin-1-yl]propyl] [1,2,4]triazolo[4,3,a]quinoxaline]
4800 nM | 118 nM | Cc1nnc2n1-c1ccccc1N(CCCN1CCC(=C3c4ccccc4C=Cc4ccccc43)CC1)C2 [Compound 78, 4,5-dihydro-1-methyl-5-[3-[4-(5H-dibenzo[a,d]cyclohepten-5-ylidene)piperidin-1-yl]propyl][1,2,4]triazolo[4,3-a] quinoxaline]
5150 nM | 2910 nM | Cc1nnc2n(CCCN3CCC(c4c[nH]c5ccccc45)CC3)c3cc(Cl)ccc3n12 [Compound 205, 3-methyl-7-chloro-9-[3-[4-(3-indolyl)piperidin-1-yl]propyl]-9H-[1,2,4]triazolo[4,3-a]benzimidazole]
124 nM | 353 nM | Cc1nnc2n(CCCN3CCC(C(O)(c4ccccc4)c4ccccc4)CC3)c3ccccc3n12 [Compound 198, 3-methyl-9-[3-[4-(hydroxydiphenylmethyl)piperidin-1-yl]propyl]-9H-[1,2,4]triazolo[4,3-a]benzimidazole fumaric acid salt]
313 nM | 246 nM | Cc1nnc2n(CCCN3CCC(c4c[nH]c5ccc(Cl)cc45)CC3)c3ccccc3n12 [Compound 195, 3-methyl-9-[3-[4-(5-chloro-3-indolyl)piperidin-1-yl]propyl]-9H-[1,2,4]triazolo[4,3-a] benzimidazole]
5260 nM | 7170 nM | COc1ccccc1N1CCN(CCCN2Cc3nnc(C)n3-c3ccccc32)CC1 [Compound 86, 4,5-dihydro-1-methyl-5-[3-[4-(2-methoxyphenyl)piperazin-1-yl]propyl][1,2,4]triazolo[4,3-a] quinoxaline]
2800 nM | 806 nM | CCn1cc(C2CCN(CCCN3Cc4nnc(C)n4-c4ccccc43)CC2)c2ccccc21 [Compound 64, 4,5-dihydro-1-methyl-5-[3-[4-(1-ethyl-3-indolyl)piperidin-1-yl]propyl][1,2,4]triazolo[4,3-a] quinoxaline fumaric acid salt]
475 nM | 11.9 nM | COc1cccc(C(=C2CCN(CCCN3Cc4nnc(C)n4-c4ccccc43)CC2)c2ccccc2)c1 [Compound 140, 4,5-dihydro-1-methyl-5-[3-[4-[(3-methoxyphenyl)phenylmethylene]piperidin-1-yl]propyl] [1,2,4]triazolo[4,3,a]quinoxaline]
578 nM | 126 nM | COc1ccc(C(O)(c2ccccc2)C2CCN(CCCN3Cc4nnc(C)n4-c4ccccc43)CC2)cc1OC (centres unmarked) [Compound 130, 4,5-dihydro-1-methyl-5-[3-[4-[hydroxy(3,4-dimethoxyphenyl)phenylmethyl]piperidin-1-yl]propyl] [1,2,4]triazolo[4,3-a]quinoxaline]
1190 nM | 351 nM | Cc1nnc2n1-c1ccccc1N(CCCN1CCC(=C(c3ccco3)c3ccco3)CC1)C2 [Compound 161, 4,5-dihydro-1-methyl-5-[3-[4-[bis(2-furyl)methylene]piperidin-1-yl]propyl] [1,2,4]triazolo[4,3,a]quinoxaline]
103 nM | 770 nM | Cc1nnc2n1-c1ccccc1N(CCCN1CCC(c3noc4ccccc34)CC1)C2 [Compound 80, 4,5-dihydro-1-methyl-5-[3-[4-(1,2-benzisoxazol-3-yl)piperidin-1-yl]propyl][1,2,4]triazolo[4,3-a] quinoxaline]
80.8 nM | 1980 nM | CCCc1nnc2n(CCCN3CCC(c4c[nH]c5ccccc45)CC3)c3ccccc3n12 [Compound 194, 3-propyl-9-[3-[4-(3-indolyl)piperidin-1-yl]propyl]-9H-[1,2,4]triazolo[4,3-a]benzimidazole fumaric acid salt]
586 nM | 75 nM | Cc1ccc2[nH]cc(C3CCN(CCCn4c5ccccc5n5c(C)nnc45)CC3)c2c1 [Compound 197, 3-methyl-9-[3-[4-(5-methyl-3-indolyl)piperidin-1-yl]propyl]-9H-[1,2,4]triazolo[4,3-a]benzimidazole]
141 nM | 190 nM | Cc1nnc2n1-c1ccccc1N(CCCN1CCC(=C(c3ccc(F)cc3)c3ccc(F)cc3)CC1)C2 [Compound 77, 4,5-dihydro-1-methyl-5-[3-[4-[bis(4-fluorophenyl)methylene]piperidin-1-yl]propyl][1,2,4]triazolo[4,3-a] quinoxaline]
38.6 nM | 50.4 nM | Cc1nnc2n(CCCN3CCC(OC(c4ccccc4)c4ccccc4)CC3)c3ccccc3n12 [Compound 200, 3-methyl-9-[3-[4-(diphenylmethoxy)piperidin-1-yl]propyl]-9H-[1,2,4]triazolo[4,3-a]benzimidazole fumaric acid salt]
277 nM | 294 nM | Cc1nnc2n(CCCN3CCC(=C(c4ccccc4)c4ccccc4)CC3)c3ccccc3n12 [Compound 201, 3-methyl-9-[3-[4-(diphenylmethylene)piperidin-1-yl]propyl]-9H-[1,2,4]triazolo[4,3-a]benzimidazole fumaric acid salt]
411 nM | 74.7 nM | COc1cccc(C(=C2CCN(CCCN3Cc4nnc(C)n4-c4ccccc43)CC2)c2cccc(OC)c2)c1 [Compound 143, 4,5-dihydro-1-methyl-5-[3-[4-[bis(3-methoxyphenyl)methylene]piperidin-1-yl]propyl] [1,2,4]triazolo[4,3,a]quinoxaline]

Reference: patent EP0536419B1, “TRICYCLIC TRIAZOLE DERIVATIVES, PRODUCTION AND USE THEREOF” (TORAY INDUSTRIES, INC., priority 1991, dated 1992)
